± gives the uncertainty stated by the source.
Test: xn = mol fraction of the nth substance listed
Conditions: 308.15 K, 101 kPa

CCCCCCCCCCCCCCCC[n+]1ccccc1.[Cl-] + C[C@H](N)C(=O)O + O
Conditions | electrical conductivity [S/m]
x2 = 0, x1 = 5.4e-07 | 0.000222 ± 2e-06
x2 = 0, x1 = 9e-07 | 0.00029 ± 3e-06
x2 = 0, x1 = 1.62e-06 | 0.0004 ± 4e-06
x2 = 0, x1 = 2.34e-06 | 0.000465 ± 5e-06
x2 = 0, x1 = 2.88e-06 | 0.000581 ± 6e-06
x2 = 0, x1 = 3.78e-06 | 0.000705 ± 7e-06
x2 = 0, x1 = 4.5e-06 | 0.000794 ± 8e-06
x2 = 0, x1 = 5.59e-06 | 0.000937 ± 9e-06
x2 = 0, x1 = 6.85e-06 | 0.00106 ± 1.1e-05
x2 = 0, x1 = 7.93e-06 | 0.001222 ± 1.2e-05
x2 = 0, x1 = 9.01e-06 | 0.001438 ± 1.4e-05
x2 = 0, x1 = 1.009e-05 | 0.00159 ± 1.6e-05
x2 = 0, x1 = 1.117e-05 | 0.001701 ± 1.7e-05
x2 = 0, x1 = 1.442e-05 | 0.00209 ± 2.1e-05
x2 = 0, x1 = 1.55e-05 | 0.00219 ± 2.2e-05
x2 = 0, x1 = 1.766e-05 | 0.00237 ± 2.4e-05
x2 = 0, x1 = 1.982e-05 | 0.00248 ± 2.5e-05
x2 = 0, x1 = 2.18e-05 | 0.00259 ± 2.6e-05
x2 = 0, x1 = 2.397e-05 | 0.00264 ± 2.6e-05
x2 = 0, x1 = 2.595e-05 | 0.00278 ± 2.8e-05
x2 = 0, x1 = 2.991e-05 | 0.00297 ± 3e-05
x2 = 0, x1 = 3.406e-05 | 0.00314 ± 3.1e-05
x2 = 0, x1 = 3.784e-05 | 0.00328 ± 3.3e-05
x2 = 0, x1 = 4.162e-05 | 0.00342 ± 3.4e-05
x2 = 0, x1 = 4.541e-05 | 0.00356 ± 3.6e-05
x2 = 0, x1 = 4.919e-05 | 0.00369 ± 3.7e-05
x2 = 0, x1 = 5.099e-05 | 0.00375 ± 3.8e-05
x2 = 0, x1 = 5.982e-05 | 0.00403 ± 4e-05
x2 = 0, x1 = 6.829e-05 | 0.00432 ± 4.3e-05
x2 = 0, x1 = 7.64e-05 | 0.00454 ± 4.5e-05
x2 = 0, x1 = 8.415e-05 | 0.00477 ± 4.8e-05
x2 = 0, x1 = 9.171e-05 | 0.00497 ± 5e-05
x2 = 0, x1 = 9.892e-05 | 0.00516 ± 5.2e-05
x2 = 0, x1 = 0.0001058 | 0.00533 ± 5.3e-05
x2 = 0, x1 = 0.0001124 | 0.0055 ± 5.5e-05
x2 = 0, x1 = 0.0001189 | 0.00565 ± 5.7e-05
x2 = 2.252e-05, x1 = 1.08e-06 | 0.000338 ± 3e-06
x2 = 2.252e-05, x1 = 2.34e-06 | 0.00063 ± 6e-06
x2 = 2.252e-05, x1 = 3.42e-06 | 0.000917 ± 9e-06
x2 = 2.252e-05, x1 = 4.69e-06 | 0.00119 ± 1.2e-05
x2 = 2.252e-05, x1 = 5.77e-06 | 0.00147 ± 1.5e-05
x2 = 2.252e-05, x1 = 6.85e-06 | 0.001711 ± 1.7e-05
x2 = 2.252e-05, x1 = 7.93e-06 | 0.001903 ± 1.9e-05
x2 = 2.252e-05, x1 = 9.19e-06 | 0.00208 ± 2.1e-05
x2 = 2.252e-05, x1 = 1.027e-05 | 0.00219 ± 2.2e-05
x2 = 2.252e-05, x1 = 1.135e-05 | 0.00241 ± 2.4e-05
x2 = 2.252e-05, x1 = 1.243e-05 | 0.00258 ± 2.6e-05
x2 = 2.252e-05, x1 = 1.352e-05 | 0.00273 ± 2.7e-05
x2 = 2.252e-05, x1 = 1.46e-05 | 0.00288 ± 2.9e-05
x2 = 2.252e-05, x1 = 1.568e-05 | 0.00298 ± 3e-05
x2 = 2.252e-05, x1 = 1.784e-05 | 0.00318 ± 3.2e-05
x2 = 2.252e-05, x1 = 2e-05 | 0.00331 ± 3.3e-05
x2 = 2.252e-05, x1 = 2.217e-05 | 0.00341 ± 3.4e-05
x2 = 2.252e-05, x1 = 2.433e-05 | 0.00351 ± 3.5e-05
x2 = 2.252e-05, x1 = 2.631e-05 | 0.00358 ± 3.6e-05
x2 = 2.252e-05, x1 = 3.046e-05 | 0.00382 ± 3.8e-05
x2 = 2.252e-05, x1 = 3.442e-05 | 0.00393 ± 3.9e-05
x2 = 2.252e-05, x1 = 3.838e-05 | 0.00411 ± 4.1e-05
x2 = 2.252e-05, x1 = 4.235e-05 | 0.00422 ± 4.2e-05
x2 = 2.252e-05, x1 = 4.613e-05 | 0.00439 ± 4.4e-05
x2 = 2.252e-05, x1 = 4.992e-05 | 0.00462 ± 4.6e-05
x2 = 2.252e-05, x1 = 5.172e-05 | 0.00468 ± 4.7e-05
x2 = 2.252e-05, x1 = 6.073e-05 | 0.00486 ± 4.9e-05
x2 = 2.252e-05, x1 = 6.938e-05 | 0.00502 ± 5e-05
x2 = 2.252e-05, x1 = 7.767e-05 | 0.00529 ± 5.3e-05
x2 = 2.252e-05, x1 = 8.542e-05 | 0.00541 ± 5.4e-05
x2 = 2.252e-05, x1 = 9.316e-05 | 0.00565 ± 5.7e-05
x2 = 2.252e-05, x1 = 0.0001004 | 0.00593 ± 5.9e-05
x2 = 2.252e-05, x1 = 0.0001074 | 0.00614 ± 6.1e-05
x2 = 2.252e-05, x1 = 0.0001142 | 0.00629 ± 6.3e-05
x2 = 2.252e-05, x1 = 0.0001207 | 0.00635 ± 6.4e-05
x2 = 0.0003926, x1 = 6.912e-05 | 0.0057 ± 5.7e-05
x2 = 0.0003926, x1 = 7.742e-05 | 0.00596 ± 6e-05
x2 = 0.0003927, x1 = 1.08e-06 | 0.000964 ± 1e-05
x2 = 0.0003927, x1 = 2.35e-06 | 0.00116 ± 1.2e-05
x2 = 0.0003927, x1 = 3.43e-06 | 0.00138 ± 1.4e-05
x2 = 0.0003927, x1 = 4.51e-06 | 0.001535 ± 1.5e-05
x2 = 0.0003927, x1 = 5.78e-06 | 0.00176 ± 1.8e-05
x2 = 0.0003927, x1 = 6.86e-06 | 0.001924 ± 1.9e-05
x2 = 0.0003927, x1 = 7.94e-06 | 0.00212 ± 2.1e-05
x2 = 0.0003927, x1 = 9.02e-06 | 0.00222 ± 2.2e-05
x2 = 0.0003927, x1 = 1.029e-05 | 0.0024 ± 2.4e-05
x2 = 0.0003927, x1 = 1.137e-05 | 0.00252 ± 2.5e-05
x2 = 0.0003927, x1 = 1.245e-05 | 0.00271 ± 2.7e-05
x2 = 0.0003927, x1 = 1.354e-05 | 0.00279 ± 2.8e-05
x2 = 0.0003927, x1 = 1.462e-05 | 0.00297 ± 3e-05
x2 = 0.0003927, x1 = 1.57e-05 | 0.00311 ± 3.1e-05
x2 = 0.0003927, x1 = 1.787e-05 | 0.0034 ± 3.4e-05
x2 = 0.0003927, x1 = 2.003e-05 | 0.0035 ± 3.5e-05
x2 = 0.0003927, x1 = 2.22e-05 | 0.00366 ± 3.7e-05
x2 = 0.0003927, x1 = 2.418e-05 | 0.00389 ± 3.9e-05
x2 = 0.0003927, x1 = 2.635e-05 | 0.00397 ± 4e-05
x2 = 0.0003927, x1 = 3.032e-05 | 0.00414 ± 4.1e-05
x2 = 0.0003927, x1 = 3.447e-05 | 0.00426 ± 4.3e-05
x2 = 0.0003927, x1 = 3.844e-05 | 0.00448 ± 4.5e-05
x2 = 0.0003927, x1 = 4.223e-05 | 0.00473 ± 4.7e-05
x2 = 0.0003927, x1 = 4.602e-05 | 0.00487 ± 4.9e-05
x2 = 0.0003927, x1 = 4.981e-05 | 0.00495 ± 5e-05
x2 = 0.0003927, x1 = 5.161e-05 | 0.00502 ± 5e-05
x2 = 0.0003927, x1 = 6.064e-05 | 0.00532 ± 5.3e-05

— the CheMixHub ionic liquid set
